From ChEMBL document CHEMBL1152168 (Bioorg Med Chem Lett, 2008)
Converted amounts (≈) assume the structure as drawn.

Legend:
[1] = Inhibition of MEK-mediated phosphorylation of myelin basic protein by kinase cascade assay
[2] = Inhibition of MEK-mediated ERK phosphorylation in PDGF-stimulated mouse K-Balb cells treated as single oral dose preincubated for 24 hrs before PDGF challenge by whole cell assay
[3] = Inhibition of MEK-mediated ERK phosphorylation in PDGF-stimulated mouse K-Balb cells treated as single oral dose preincubated for 1 hr before PDGF challenge by whole cell assay
[4] = Inhibition of MEK-stimulated ERK phosphorylation in PDGF-stimulated mouse C26 cells treated as single oral dose before PDGF challenge by whole cell assay; assay type: cell-based
[5] = Aqueous solubility in phosphate buffer at pH 6.5; assay type: physicochemical
[6] = Antitumor activity in mouse C26 cells xenografted mouse assessed as 50% reduction in tumor mass at 75 mg/kg/treatment, po dosed thrice a day after 14 days; assay type: functional; set-up: scale not given: the % may be the effect or the level left
[7] = Distribution coefficient, log D of the compound; assay type: physicochemical; conditions: octanol/water
[8] = Metabolic stability in human liver microsomes; assay type: ADME, Microsome
[9] = Permeability across human Caco-2 cells; assay type: ADME, cell-based; conditions: read-out: permeability
[10] = Antitumor activity in mouse C26 cells xenografted mouse assessed as tumor growth delay at 300 mg/kg/treatment, po dosed thrice a day after 14 days relative to control; assay type: functional
[11] = Antitumor activity in mouse C26 cells xenografted mouse assessed as 50% reduction in tumor mass at 300 mg/kg/treatment, po dosed thrice a day after 14 days; assay type: functional; set-up: scale not given: the % may be the effect or the level left
[12] = Antitumor activity in mouse C26 cells xenografted mouse assessed as 100% reduction in tumor mass at 75 mg/kg/treatment, po dosed thrice a day after 14 days; assay type: functional; set-up: scale not given: the % may be the effect or the level left
[13] = Antitumor activity in mouse C26 cells xenografted mouse assessed as tumor growth delay at 75 mg/kg/treatment, po dosed thrice a day after 14 days relative to control; assay type: functional
[14] = Metabolic stability in human hepatocytes; assay type: ADME, cell-based, Liver, Hepatocyte
[15] = Antitumor activity in mouse C26 cells xenografted mouse assessed as 100% reduction in tumor mass at 300 mg/kg/treatment, po dosed thrice a day after 14 days; assay type: functional; set-up: scale not given: the % may be the effect or the level left
[16] = system: Mus musculus; assay: Inhibition of MEK-mediated ERK phosphorylation in mouse C26 cells xenografted mouse at 100 mg/kg, po after 1 day; assay type: functional; conditions: C26, 24 h
[17] = Antitumor activity in mouse C26 cells xenografted mouse assessed as tumor growth delay at 1.6 mg/kg/treatment, po qd after 14 days relative to control; assay type: functional
[18] = Toxicity in mouse assessed as maximum tolerated dose; assay type: organism-based; conditions: in vivo
[19] = Antitumor activity in mouse C26 cells xenografted mouse assessed as tumor growth delay at 25 mg/kg/treatment, po qd after 14 days relative to control; assay type: functional
[20] = Antitumor activity in mouse C26 cells xenografted mouse assessed as 50% reduction in tumor mass at 25 mg/kg/treatment, po qd after 14 days; assay type: functional; set-up: scale not given: the % may be the effect or the level left
[21] = Antitumor activity in mouse C26 cells xenografted mouse assessed as 100% reduction in tumor mass at 25 mg/kg/treatment, po qd after 14 days; assay type: functional; set-up: scale not given: the % may be the effect or the level left
[22] = Antitumor activity in mouse C26 cells xenografted mouse assessed as 100% reduction in tumor mass at 1.6 mg/kg/treatment, po qd after 14 days; assay type: functional; set-up: scale not given: the % may be the effect or the level left
[23] = system: Mus musculus; assay: Inhibition of MEK-mediated ERK phosphorylation in mouse C26 cells xenografted mouse at 12.5 mg/kg, po after 1 day; assay type: functional; conditions: C26, 24 h
[24] = system: Mus musculus; assay: Inhibition of MEK-mediated ERK phosphorylation in mouse C26 cells xenografted mouse at 50 mg/kg, po after 1 day; assay type: functional; conditions: C26, 24 h
[25] = Antitumor activity in mouse C26 cells xenografted mouse assessed as minimal effective dose; assay type: functional; conditions: read-out: MED
[26] = Antitumor activity in mouse C26 cells xenografted mouse assessed as 50% reduction in tumor mass at 1.6 mg/kg/treatment, po qd after 14 days; assay type: functional; set-up: scale not given: the % may be the effect or the level left

Compound	IC50 [1] [nM]	IC50 [2] [nM]	IC50 [3] [nM]	other results
O=C(O)c1ccccc1Nc1cccc(I)c1	> 10000			
CCONC(=O)c1ccc(F)c(F)c1Nc1ccc(I)cc1C	20	47	4.18	
Cc1cc(I)ccc1Nc1cc(F)ccc1C(=O)O	15			
CONC(=O)c1ccc(F)cc1Nc1ccc(I)cc1C	26	50	11.8	
O=C(NOCCO)c1ccc(F)c(F)c1Nc1ccc(I)cc1Cl				IC50 [4]: 3.5 nM; solubility [5]: < 1 µg/mL
Cc1cc(I)ccc1Nc1c(C(=O)NOCC2CC2)ccc(F)c1F	7	172	6.48	
Cc1cc(I)ccc1Nc1c(C(=O)NOCC2CC2)cc(Br)c(F)c1F	7.8	113	26.4	
Cc1cc(I)ccc1Nc1c(C(=O)NOCC2CCCC2)cc(Br)c(F)c1F	23	661	119	
Cc1cc(I)ccc1Nc1c(C(=O)NOCC2CCCCC2)cc(Br)c(F)c1F	48	1780	1140	
CCCONC(=O)c1ccc(F)c(F)c1Nc1ccc(I)cc1C	18	136	4.42	
Cc1cc(I)ccc1Nc1c(C(=O)NOC(C)C)ccc(F)c1F	35	232	8.18	
Cc1cc(I)ccc1Nc1cc(F)ccc1C(=O)NOCC1CC1	27	257	23.5	
O=C(NOCC1CC1)c1ccc(F)cc1Nc1ccc(I)cc1Cl	13	84.6	54.9	
Cc1cc(I)ccc1Nc1c(C(=O)O)ccc(F)c1F	5.8			
Cc1cc(I)ccc1Nc1ccc(F)cc1C(=O)O	166			
Cc1cc(I)ccc1Nc1cc(Cl)ccc1C(=O)O	554			
Cc1cc(I)ccc1Nc1ccccc1C(=O)O	390			
O=C(O)c1ccccc1Nc1ccccc1I	> 10000			
O=C(O)c1ccccc1Nc1ccc(I)cc1	3050			
O=C(NOC[C@@H](O)CO)c1ccc(F)c(F)c1Nc1ccc(I)cc1F				solubility [5]: 255 µg/mL (≈ 529 µM)
O=C(NOCC1CC1)c1ccc(F)c(F)c1Nc1ccc(I)cc1F				IC50 [4]: 1 nM; solubility [5]: < 1 µg/mL
O=C(NO)c1ccc(F)cc1Nc1ccc(I)cc1Cl	2.8	645	1.59	
Cc1cc(I)ccc1Nc1c(C(=O)NOCC2CCC2)cc(Br)c(F)c1F	10	326	75.8	
Cc1cc(I)ccc1Nc1cc(F)ccc1C(=O)NO	7.96	624	3.55	
Cc1cc(I)ccc1Nc1c(C(=O)O)cc(F)c(F)c1F	6.8			
Cc1cc(I)ccc1Nc1cccc(F)c1C(=O)O	518			
O=C(NOCC(O)CO)c1ccc(F)c(F)c1Nc1ccc(I)cc1Cl (racemic)				IC50 [4]: 19 nM
O=C(NOCC(O)CO)c1ccc(F)c(F)c1Nc1ccc(I)cc1F (racemic)				solubility [5]: 147 µg/mL (≈ 305 µM)
O=C(NOCC1CC1)c1ccc(F)c(F)c1Nc1ccc(I)cc1Cl [CI-1040]	2.3	35.4	2.45	Activity [6]: 20%; logD [7]: > 5; half-life [8]: 0.192 h; Papp [9]: 16.2 ×10⁻⁶ cm/s; Activity [10]: 12.7 days; Activity [11]: 30%; Activity [12]: 10%; Activity [13]: 10.8 days; IC50 [4]: 35 nM; half-life [14]: 1.67 h; Activity [15]: 70%; inhibition in vivo at 100 mg/kg [16]: 14%
O=C(NOC[C@H](O)CO)c1ccc(F)c(F)c1Nc1ccc(I)cc1F [MIRDAMETINIB]				Activity [17]: 7.7 days; logD [7]: 4.6; MTD [18]: 25 mg/kg; Activity [19]: 15.4 days; half-life [8]: > 1.67 h; Papp [9]: 72.7 ×10⁻⁶ cm/s; Activity [20]: 30%; Activity [21]: 70%; Activity [22]: 20%; half-life [14]: 6.17 h; inhibition in vivo at 12.5 mg/kg [23]: 59%; inhibition in vivo at 50 mg/kg [24]: 84%; minimal effective dose [25]: 1.6 mg/kg; solubility [5]: 190 µg/mL (≈ 394 µM); Activity [26]: 0%
